Laboratory results from US20240156795A1, “METHODS AND COMPOSITIONS FOR THE TREATMENT OF DRUG RESISTANT TOPICAL INFECTIONS” (Lankenau Institute for Medical Research, priority 2020, published 2024).
pEC50, pIC50: −log10 of the molar value. Values joined by “and” are separate entries in the source; they are usually repeats but may differ in a detail not shown here. Equal entries are not always repeated.

Assays:
onychomycosis = conditions: topical treatment of toenail fungus; cited from earlier work
[1] = i.v. infusion of >50% solutions, cardiac surgery trial (Bennett-Guerrero et al., 2009); cited from earlier work
Trichophyton rubrum = conditions: seven strains of Trichophyton rubrum; reported by others [28]; cited from earlier work
HIF1 = HIF1 stabilization in cells from B6 HIF-luciferase reporter mice, assayed ex vivo; assay type: cell-based, mouse
Description: Cells derived from B6 HIF-luciferase reporter mice were assayed ex vivo to detect the stabilization of HIF1 protein. Values are means of duplicate determinations ±SD. In the course of studies of inhibitors of proline hydroxylase-domain protein (PHD), an enzyme regulating cellular HIF1 levels, we observed that 10 μM ciclopirox enhanced the readout by 15-fold (screening data not shown). […] The details for the assay protocol are published elsewhere.

IDO1 = biological target: T1, IDO1 (Homo sapiens, UniProt P14902); assay: IDO1 activity in U937 cells, kynurenine formation after IFN-γ induction; assay type: cell-based; conditions: IFN-γ induced, FIG. 2, read-out: IC50 for IDO inhibition in a cellular assay
T1 construct: endogenous in cells; host or cells: U937 cells, induced with IFN-γ
T1 sequence (P14902 whole entry): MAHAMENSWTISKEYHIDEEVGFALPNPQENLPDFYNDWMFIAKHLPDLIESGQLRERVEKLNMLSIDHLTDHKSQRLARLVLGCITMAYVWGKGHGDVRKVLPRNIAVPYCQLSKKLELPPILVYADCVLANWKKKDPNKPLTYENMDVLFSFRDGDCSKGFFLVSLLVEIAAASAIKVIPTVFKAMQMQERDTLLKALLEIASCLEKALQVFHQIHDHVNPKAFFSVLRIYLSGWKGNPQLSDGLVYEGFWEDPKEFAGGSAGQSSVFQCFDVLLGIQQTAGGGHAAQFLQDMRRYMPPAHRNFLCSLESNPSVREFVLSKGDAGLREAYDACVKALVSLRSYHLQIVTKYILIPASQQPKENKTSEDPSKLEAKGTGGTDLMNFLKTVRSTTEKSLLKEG
Description: IDO1 activity in U937 cells was assessed by spectrophotometric measurement of kynurenine formation in the medium at least 24 hours post-induction with IFN-γ. Values are means of duplicate determinations ±SD.
The IDOL enzyme was first recognized as an antimicrobial. The approved topical formulant ethyl pyruvate (EP) can also blunt IDO levels and reverse immunosuppression in the setting of cancer to enable immune eradication. […] This is finding is not previously reported in the literature. The details of the assay protocol are published elsewhere.

Question: Which “efficacy for complete clinical cure” value (onychomycosis) does the source give for `C=C1CCN([C@H](C)[C@](O)(Cn2cncn2)c2ccc(F)cc2F)CC1` [Jublia, efinaconazole] here?
Answer: ≤ 18%

Question: Which “efficacy for complete clinical cure” value (onychomycosis) does the source give for `OB1OCc2cc(F)ccc21` [Kerydin, tavarborole] here?
Answer: ≤ 10%

Question: Which toxicity in humans [1] does the source give for `CCOC(=O)C(C)=O` [EP, ethyl pyruvate] here?
Answer: No significant toxicities were reported

Question: Which results are given for `Cc1cc(C2CCCCC2)n(O)c(=O)c1` [ciclopirox, ciclopirox olamine]?
Answer: efficacy for complete clinical cure (onychomycosis): ≤ 12%; average MIC concentration (Trichophyton rubrum): ~16 μg/ml and ~77 μM; enhancement of HIF readout (HIF1; 10 μM ciclopirox, screening data not shown): 15 fold; pEC50 (HIF1; Mus musculus, follow-up study, FIG. 1, read-out: apparent EC50 for HIF level stimulation): 5.30; maximal stimulation of HIF levels over the solvent control (HIF1; follow-up study, FIG. 1): ~35 fold; pIC50 (IDO1): ~5.70
